According to US20230372355A1 (AXSOME THERAPEUTICS, INC., priority 2022, published 2023):

Experiments:
[1] = system: patients with moderate and severe migraine and a history of inadequate response to prior acute treatments; experiment: Phase 3 randomized, double-blind, placebo- and active-controlled trial, acute treatment of moderate and severe migraine (Example 1), efficacy; assay type: in vivo, human
From the text: Exclusion criteria included cluster headaches or other types of migraines, chronic daily headache 15 non-migraine headache days per month), history of significant cardiovascular disease, and uncontrolled hypertension.

[2] = system: patients with moderate and severe migraine; conditions: human, in vivo

## CN(C)CCc1c[nH]c2ccc(Cn3cncn3)cc12 [rizatriptan, Rizatriptan]
[1]; 2-24 hours
  percentage of patients experiencing sustained pain relief from 2 hours to 24 hours after dosing: 43.9%
[1]; 2-48 hours
  proportion of patients with sustained pain freedom from 2 hours to 48 hours: 8.8%
[1]; […] after dosing
  proportion of patients experiencing pain relief […] after dosing: 52.5%
[2]
  Any Treatment-Emergent Adverse Event, % of subjects: 15.4%
  Any Treatment-Emergent Adverse Event, number of subjects: 67
  Dizziness, % of subjects: 2.1%
  Dizziness, number of subjects: 9
  Nausea, % of subjects: 4.8%
  Nausea, number of subjects: 21
  Somnolence, % of subjects: 2.1%
  Somnolence, number of subjects: 9
